Data taken from ChEMBL document CHEMBL5247647, “Phenothiazine-Based LSD1 Inhibitor Promotes T-Cell Killing Response of Gastric Cancer Cells” (J Med Chem, 2023).
pIC50: −log10 of the molar value. Activity calls are given as the source filed them. No cut-off for these calls is given here.

Experiments:
[1] = target: T1, MAO-A (Homo sapiens, UniProt P21397); test: Inhibition of recombinant human MAO-A at 10 uM
T1 sequence (P21397 whole entry): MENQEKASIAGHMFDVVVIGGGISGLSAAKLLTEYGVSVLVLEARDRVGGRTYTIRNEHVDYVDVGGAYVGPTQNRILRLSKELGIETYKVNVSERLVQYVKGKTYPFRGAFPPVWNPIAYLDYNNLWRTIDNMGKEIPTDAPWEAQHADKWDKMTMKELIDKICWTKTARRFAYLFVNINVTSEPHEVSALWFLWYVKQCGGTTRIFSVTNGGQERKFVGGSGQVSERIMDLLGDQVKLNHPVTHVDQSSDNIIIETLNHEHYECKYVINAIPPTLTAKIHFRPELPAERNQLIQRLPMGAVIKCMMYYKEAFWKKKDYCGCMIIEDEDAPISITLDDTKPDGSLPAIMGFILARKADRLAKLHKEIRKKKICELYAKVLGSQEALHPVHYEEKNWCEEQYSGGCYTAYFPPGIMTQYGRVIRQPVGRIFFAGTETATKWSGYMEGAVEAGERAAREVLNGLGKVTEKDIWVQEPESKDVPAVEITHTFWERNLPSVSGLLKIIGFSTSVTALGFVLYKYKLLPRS

[2] = system: BGC-823; test: Downregulation of PD-L1 expression in human LSD1 knockout BGC-823 cells at 5 to 20 uM incubated for 5 days by Western blot anlaysis; assay type: functional, cell-based; settings: dose 5-20 µM, time 5.0 day
[3] = Toxicity against 615 mouse xenografted with mouse MFC cells in assessed as pathological changes in heart at 10 to 50 mg/kg, po for 14 days by Hematoxylin and Eosin staining based microscopic analysis; assay type: organism-based; settings: in vivo, 336 h, dose 10-50 mg/kg, time 14 day
[4] = system: MFC; test: Antitumor activity against mouse MFC cells xenografted in 615 mouse assessed as increase in infiltration of CD4+ T cells into tumor at 10 to 50 mg/kg, po for 14 days by immunohistochemistry; assay type: functional, organism-based; settings: dose 10-50 mg/kg, time 14.0 day
[5] = system: MFC; test: Antitumor activity against mouse MFC cells xenografted in 615 mouse assessed as increase in infiltration of CD8+ T cells into tumor at 10 to 50 mg/kg, po for 14 days by immunohistochemistry; assay type: functional, organism-based; settings: dose 10-50 mg/kg, time 14.0 day
[6] = target: T2, Lysine-specific histone demethylase 2 (Homo sapiens) (UniProt Q8NB78); test: Inhibition of recombinant LSD2 (unknown origin) at 10 uM
T2 sequence (whole entry): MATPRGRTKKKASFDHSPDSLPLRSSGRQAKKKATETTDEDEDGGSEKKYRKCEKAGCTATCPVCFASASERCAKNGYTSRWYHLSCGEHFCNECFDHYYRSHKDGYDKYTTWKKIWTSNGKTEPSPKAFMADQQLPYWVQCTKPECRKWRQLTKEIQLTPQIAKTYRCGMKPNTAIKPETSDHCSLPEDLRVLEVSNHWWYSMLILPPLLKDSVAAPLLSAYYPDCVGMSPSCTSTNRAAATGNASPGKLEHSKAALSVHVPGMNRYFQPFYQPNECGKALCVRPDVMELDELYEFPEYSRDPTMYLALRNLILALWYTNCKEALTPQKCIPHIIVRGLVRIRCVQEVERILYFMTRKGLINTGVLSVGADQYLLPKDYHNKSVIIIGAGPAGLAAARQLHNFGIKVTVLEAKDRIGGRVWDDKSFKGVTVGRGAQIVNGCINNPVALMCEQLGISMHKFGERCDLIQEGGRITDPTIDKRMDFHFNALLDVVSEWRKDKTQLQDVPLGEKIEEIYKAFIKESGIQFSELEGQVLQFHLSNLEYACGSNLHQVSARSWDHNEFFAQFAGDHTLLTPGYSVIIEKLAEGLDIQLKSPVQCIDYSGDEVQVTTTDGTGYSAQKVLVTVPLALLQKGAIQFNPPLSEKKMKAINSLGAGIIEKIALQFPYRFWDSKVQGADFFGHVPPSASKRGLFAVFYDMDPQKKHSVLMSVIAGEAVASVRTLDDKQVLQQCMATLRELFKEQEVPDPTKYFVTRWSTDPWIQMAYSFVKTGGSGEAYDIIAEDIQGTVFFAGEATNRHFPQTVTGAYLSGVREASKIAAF

[7] = target: T3, Lysine-specific histone demethylase 1A (Homo sapiens, UniProt O60341); test: Inhibition of human LSD1 in human LSD1 knockout BGC-823 cells assessed as effect on H3K4me3 methylation at 5 to 20 uM incubated for 5 days by Western blot anlaysis; assay type: cell-based; settings: dose 5-20 µM, time 5.0 day
[8] = target: T3, Lysine-specific histone demethylase 1A; test: Inhibition of recombinant LSD1 (unknown origin) expressed in Escherichia coli BL21 (DE3) using H3K4me2 peptide as substrate incubated for 30 mins by fluorescence based microplate reader assay
[9] = system: BGC-823; test: Downregulation of PD-L1 expression in human BGC-823 cells at 5 to 20 uM incubated for 5 days by Western blot anlaysis; assay type: functional, cell-based; settings: dose 5-20 µM, time 5.0 day
[10] = target: T3, Lysine-specific histone demethylase 1A; test: Inhibition of human LSD1 in human BGC-823 cells assessed as inhibition of H3K4me1 demethylation at 5 to 20 uM incubated for 5 days by Western blot anlaysis; assay type: cell-based; settings: dose 5-20 µM, time 5.0 day
[11] = system: MFC; test: Antitumor activity against mouse MFC cells xenografted in 615 mouse assessed as decrease in tumor weight at 10 to 50 mg/kg, po for 14 days; assay type: functional, organism-based; settings: dose 10-50 mg/kg, time 14.0 day
[12] = target: T3, Lysine-specific histone demethylase 1A; test: Inhibition of human LSD1 in human LSD1 knockout BGC-823 cells assessed as effect on H3K4me1 methylation at 5 to 20 uM incubated for 5 days by Western blot anlaysis; assay type: cell-based; settings: dose 5-20 µM, time 5.0 day
[13] = Toxicity against 615 mouse xenografted with mouse MFC cells in assessed as pathological changes in lungs at 10 to 50 mg/kg, po for 14 days by Hematoxylin and Eosin staining based microscopic analysis; assay type: organism-based; settings: in vivo, 336 h, dose 10-50 mg/kg, time 14 day
[14] = system: BGC-823; test: Anticancer activity against human PD-L1 knockout BGC-823 cells assessed as increase in CD3/CD28 activated T-cell killing response at 5 to 20 uM incubated for 5 days by DAPI staining based assay; assay type: functional; settings: dose 5-20 µM, time 5.0 day
[15] = system: BGC-823; test: Anticancer activity against human LSD1 knockout BGC-823 cells assessed as increase in CD3/CD28 activated T-cell killing response at 5 to 20 uM incubated for 5 days by DAPI staining based assay; assay type: functional; settings: dose 5-20 µM, time 5.0 day
[16] = target: Programmed cell death protein 1/Programmed cell death 1 ligand 1 (Homo sapiens) (UniProt Q15116+Q9NZQ7); test: Inhibition of PD-L1/PD-1 interaction in human BGC-823 cells assessed as decrease in binding of PD-1 to cell membrane at 5 to 20 uM incubated for 5 days followed by recombinant PD-1-Fc protein addition by confocal microscopy analysis; assay type: cell-based; settings: dose 5-20 µM, time 5.0 day
[17] = target: T3, Lysine-specific histone demethylase 1A; test: Inhibition of human LSD1 in human LSD1 knockout BGC-823 cells assessed as effect on H3K4me2 methylation at 5 to 20 uM incubated for 5 days by Western blot anlaysis; assay type: cell-based; settings: dose 5-20 µM, time 5.0 day
[18] = system: MFC; test: Antitumor activity against mouse MFC cells xenografted in 615 mouse assessed as decrease in intratumoral PD-L1 expression at 10 to 50 mg/kg, po for 14 days by Western blot analysis; assay type: functional, organism-based; settings: dose 10-50 mg/kg, time 14.0 day
[19] = system: MFC; test: Antitumor activity against mouse MFC cells xenografted in 615 mouse assessed as increase in IFNgamma expression level in tumor at 10 to 50 mg/kg, po for 14 days by ELISA; assay type: functional, organism-based; settings: dose 10-50 mg/kg, time 14.0 day
[20] = system: BGC-823; test: Downregulation of PD-L1 expression in human BGC-823 cell membrane at 5 to 20 uM incubated for 5 days by Western blot anlaysis; assay type: functional, cell membranes; settings: dose 5-20 µM, time 5.0 day
[21] = target: T4, MAO-B (Homo sapiens, UniProt P27338); test: Inhibition of recombinant human MAO-B at 10 uM
T4 sequence (P27338 whole entry): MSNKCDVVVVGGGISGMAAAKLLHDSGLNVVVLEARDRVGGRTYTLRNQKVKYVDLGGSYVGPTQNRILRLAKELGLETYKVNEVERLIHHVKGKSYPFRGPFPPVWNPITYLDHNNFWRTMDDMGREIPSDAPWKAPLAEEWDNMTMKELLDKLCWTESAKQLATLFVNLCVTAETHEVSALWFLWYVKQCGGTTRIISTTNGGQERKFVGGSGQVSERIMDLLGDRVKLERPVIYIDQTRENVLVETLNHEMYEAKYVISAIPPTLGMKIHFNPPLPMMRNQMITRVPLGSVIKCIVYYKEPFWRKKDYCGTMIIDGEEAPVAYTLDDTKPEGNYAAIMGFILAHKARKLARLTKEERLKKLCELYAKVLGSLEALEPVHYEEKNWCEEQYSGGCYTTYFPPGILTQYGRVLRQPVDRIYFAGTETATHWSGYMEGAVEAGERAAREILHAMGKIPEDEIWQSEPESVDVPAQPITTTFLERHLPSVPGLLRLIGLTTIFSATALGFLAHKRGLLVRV

[22] = target: T3, Lysine-specific histone demethylase 1A; test: Inhibition of human LSD1 in human BGC-823 cells assessed as inhibition of H3K4me3 demethylation at 5 to 20 uM incubated for 5 days by Western blot anlaysis; assay type: cell-based; settings: dose 5-20 µM, time 5.0 day

- inhibition at 10 µM [1]: < 10%
- inhibition [6]: > 10%
- inhibition [7]: inactive
- pIC50 [8]: 6.61
- inhibition [10]: Active
- inhibition [12]: inactive
- inhibition [17]: inactive
- inhibition at 10 µM [21]: < 10%
- inhibition [22]: inactive
SMILES: c1ccc2c(c1)Sc1ccccc1N2CCN1CCOCC1
- Activity [2]: inactive
- Activity [3]: Non-Toxic
- Activity [4]: Active
- Activity [5]: Active
- Activity [9]: Dose-Dependent Effect
- Activity [11]: Active
- Activity [13]: Non-Toxic
- Activity [14]: inactive
- Activity [15]: inactive
- inhibition [16]: Dose-Dependent Effect
- Activity [18]: Dose-Dependent Effect
- Activity [19]: Active
- Activity [20]: Dose-Dependent Effect
